Data reported in patent US8597264B2, “Apparatuses, methods, and compositions for the treatment and prophylaxis of chronic wounds” (KCI Licensing, Inc., priority 2011, dated 2013).

Key:
[1] = Release of alpha-lipoic acid from the coating on foam pads; assay type: physicochemical; settings: coating on foam pads (FIG. 4)
Description: Polyurethane open-cell reticulated foam pads were selected as the scaffold and were immersed in a solution containing 1.5 wt % of alpha-lipoic acid and 4.5 wt % 225-bloom beef gelatin (and, where applicable, 0.3% EDTA). Gelatin was used as a biocompatible binding agent with good oxygen barrier and sustained release properties for alpha-lipoic acid as well as for its ability to act as a sacrificial substrate for surrounding gelatinases. Alpha-lipoic acid was pre-dissolved in ethanol and then mixed into the final solution. The foam pads were immersed for a sufficient amount of time to coat the pathways formed within the open-cell reticulated foam as described above with respect to the scaffold. After immersion, the foam pads were withdrawn, compressed to remove excess solution, and dried to a constant weight. In some cases, sodium benzoate was added to the formulation as a preservative. Dried foams comprised, by weight, 2% alpha-lipoic acid, 6% gelatin and, where applicable, 0.4% EDTA.
A National Diagnostics Hydrogen Peroxide Assay Kit was used to evaluate the antioxidant properties of foam pads and the formulated coated foam pads containing alpha-lipoic acid. Foam pads coated only with gelatin were used as controls. FIG. 2 is a graph showing the percentage of hydrogen peroxide reduction due to reaction with alpha-lipoic acid. […]

[2] = biological target: T1, MMP-9 (Homo sapiens, UniProt P14780); assay: MMP-9 Colorimetric Drug Discovery Kit (Biomol): MMP activity reduction by dressings; assay type: biochemical; settings: compared to control samples with no MMP-9 inhibitor activity
T1 construct: purchased Biomol
Description: A National Diagnostics Hydrogen Peroxide Assay Kit was used to evaluate the antioxidant properties of foam pads and the formulated coated foam pads containing alpha-lipoic acid. Foam pads coated only with gelatin were used as controls. FIG. 2 is a graph showing the percentage of hydrogen peroxide reduction due to reaction with alpha-lipoic acid. An MMP-9 Colorimetric Drug Discovery Kit (Biomol) was used to evaluate the MMP inhibiting/inactivating ability of the formulated foam pads containing alpha-lipoic acid/gelatin (ALA) and gelatin alone (GF GEL). The controls were uncoated foam pads and known potent MMP inactivating drug, NNGH (C13H20N2O5S, available from Enzo® Life Sciences). […] FIG. 4 is a graph showing the release of alpha-lipoic acid from the coating on the foam pads. The coating delivers approximately 70% of the total alpha-lipoic acid within the first day, while the remaining alpha-lipoic acid is released during the next 2-3 days.
Coated polyurethane foam (GranuFoam®) scaffolds described above in Examples 1-2 were further assayed for their ability to reduce MMP activity as compared to non-coated collagen based scaffold such as the Biostep™ and Promogran™ products.

T1 sequence (P14780 107-444 limits assumed): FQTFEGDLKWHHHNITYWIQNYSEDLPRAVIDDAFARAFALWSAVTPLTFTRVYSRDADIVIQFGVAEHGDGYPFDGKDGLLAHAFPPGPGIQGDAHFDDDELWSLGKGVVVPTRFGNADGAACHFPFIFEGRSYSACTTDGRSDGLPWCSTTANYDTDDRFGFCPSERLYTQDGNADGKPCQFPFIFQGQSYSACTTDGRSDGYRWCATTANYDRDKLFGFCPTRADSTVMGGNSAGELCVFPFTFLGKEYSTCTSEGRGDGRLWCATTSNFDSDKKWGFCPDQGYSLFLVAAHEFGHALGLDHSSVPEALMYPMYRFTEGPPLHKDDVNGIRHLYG

| SMILES | time over which the remaining alpha-lipoic acid is released ([1]; after the first day) [days] | share of the total alpha-lipoic acid delivered by the coating ([1]; within the first day) | % MMP-9 activity reduction ([2]; Table 1 experiment) [%] | % MMP-9 activity reduction ([2]; Table 2 experiment) [%] |
| --- | --- | --- | --- | --- |
| O=C(O)CCCCC1CCSS1 (stereo not drawn) [alpha-lipoic acid] | 2 to 3 | approximately 70% |  |  |
| COc1ccc(S(=O)(=O)N(CC(=O)NO)CC(C)C)cc1 [NNGH] |  |  | 90.2 | 103.8 |
